Laboratory results as given in patent US8883192B2, “Compositions and methods for reducing or preventing obesity” (Nestec S.A., priority 2004, dated 2014).

Assays:
[1] = test system: rats after surgically-induced menopause; settings: cited from earlier work
[2] = test system: rat adipocytes; settings: cited from earlier work
[3] = Metabolic profile of isoflavones and their metabolites in blood of dogs; type: in vivo, dog; settings: blood of dogs tested; FIG. 8B
Source text: The following measurements were made for each animal: • Body weight, body condition score, DEXA. • Plasma concentrations of isoflavones and their metabolites • Blood leptin • Intravenous glucose tolerance test • Oxidative stress measurement (isoprostanes: 8-iso-prostaglandin F2α, formed from arachidonic acid in phospholipids by free radical reaction): 3-month samples
The metabolic profiles of isoflavones and their metabolites in the blood of humans (FIG. 8A) and dogs (FIG. 8B) were compared.

[4] = cited from earlier work
[5] = test system: estrogen receptor (ER); settings: compared with other isoflavones; cited from earlier work
[6] = test system: angiogenesis; settings: cited from earlier work
[7] = test system: topoisomerase II; settings: cited from earlier work
[8] = test system: tyrosine protein kinase; settings: cited from earlier work

For `O=c1c(-c2ccc(O)cc2)coc2cc(O)ccc12` [Daidzein, daidzein], the body fat accumulation [1] is given as “suppressing body fat accumulation”, the “basal and epinephrine-stimulated lipolysis” value [2] is given as “enhanced” and the “basal and insulin-stimulated lipogenesis” value [2] is given as “inhibited”.
In the case of `Oc1ccc([C@H]2COc3cc(O)ccc3C2)cc1` [Equol], the “form of isoflavone metabolite in the blood” value [3] is listed as “predominant form of isoflavone metabolite”, the antioxidant activity ([4]; compared with all the isoflavones tested, Setchell 2002) is listed as “greatest antioxidant activity of all the isoflavones tested” and the “induction of estrogen receptor (ER)-responsive transcription (estrogenic activity)” value [5] is listed as “more strongly than any other isoflavones”.
In the case of `O=C1c2ccc(O)cc2OCC1c1ccc(O)cc1` (stereo not shown) [dihydrodaidzein], the “free radical scavenging activities” value ([4]; Jiang 2003) is given as “appears to have free radical scavenging activities”.
For `O=c1c(-c2ccc(O)cc2)coc2cc(O)cc(O)c12` [genistein], the inhibition of angiogenesis [6] is given as “inhibits angiogenesis”, the “basal and epinephrine-stimulated lipolysis” value [2] is given as “enhanced” and the “basal and insulin-stimulated lipogenesis” value [2] is given as “inhibited”. For the same molecule, the “inhibition of topoisomerase II” value [7] was “inhibitor” and the “inhibition of tyrosine protein kinase” value [8] was “inhibits”.
For `COc1cc2c(=O)c(-c3ccc(O)cc3)coc2cc1O` [glycitein], the body fat accumulation [1] is given as “suppressing body fat accumulation”.
